Test results published in patent publication US20080275111A1, “Novel Use of Lignan Compounds” (priority 2005, published 2008).

Tests used:
[1] = Toxicity in oral administration; conditions: rat, in vivo; oral administration to rats; data not shown; read-out: 50% lethal dose (LD50)
Procedure: The lignan compound of the present invention was tested for toxicity in oral administration to rats, and as a result, it was observed that the 50% lethal dose (LD50) was more than 2,000 mg/kg (Data is not shown).

[2] = system: lipid peroxidation of the brain tissue; assay: Lipid peroxidation of brain homogenate supernatant induced by hydrogen peroxide; format: biochemical, rat
Procedure: After anesthesia of a rat, the tissue of the rat was perfused with 0.9% physiological saline solution containing EDTA. The brain was then extracted from the rat and washed with ice-cold 20 mM Tris-HCl (pH 7.4). After removing water, the weight of the brain was measured. The brain was mixed with 0.1 g/ml of ice-cold 20 mM Tris-HCl (pH 7.4) and homogenized. The homogenized brain was centrifuged and the supernatant was collected. 40 μl of the supernatant was mixed with 40 mM of hydrogen peroxide to induce lipid peroxidation. Simultaneously, different concentration (0.5, 1, 5 and 10 μM) of the lignan compounds isolated from the Example 1 were added into the supernatant, respectively. After incubation of the supernatant in water (37° C.) for 30-60 minutes, 162.5 μl of R1 solution (lipid peroxidation assay kit, Cat. No. 437634, Calbiochem) and 37.5 μl of R2 solution (lipid peroxidation assay kit, Cat. No. 437634, Calbiochem) were added into the cultured supernatant, and the supernatant was further incubated at 45° C. for 40 minutes. Then, the absorbance of the incubated medium was measured at 586 nm to quantify the lipid peroxidation.

[3] = system: tissue-cultured hippocampus neuron; assay: Reactive oxygen species production induced by BSO in tissue-cultured hippocampus neuron (DCFDA); format: cell-based, mouse; conditions: 1 mM BSO for 8 hours, compound 0.1, 0.5 and 1 μM; control not treated with BSO
Procedure: Then, the antioxidant effect of the lignan compound of the present invention in the tissue-cultured hippocampus neuron was analyzed. For this analysis, the hippocampus of a fetus extracted from a pregnant (18 days) mouse was cultured in neurobasal medium (Gibco BRL) containing B-27 supplements and 2 mM L-glutamine for 10 days. To induce oxidative stress to the tissue-cultured hippocampus neuron, it was treated with 1 mM BSO for 8 hours. Here, the tissue-cultured hippocampus neuron was also treated with each concentration (0.1, 0.5 and 1 μM) of the lignan compound of the present invention simultaneously to analyze the reactive oxygen species-inhibitory effect of the lignan compound of the present invention. The control was not treated with BSO. Then, the amount of reactive oxygen species produced was measured by a method known in the art (Jung, Y. S., Biochem Biophys Res Commun., 320(3):789-94, 2004) using 10 μM DCFDA(molecular probes).

[4] = system: IL-6; assay: IL-6 production in LPS-activated microglia (ELISA); format: cell-based, rat; conditions: 1 μg/ml LPS, compound 2.5 and 10 μM, 24 hours
From the text: When the microglia is activated by LPS, it synthesizes and secretes various pro-inflammatory cytokines such as IL-1, IL-6 and TNF-α (Chen, S. Neurobiol. Aging, 17:781-787, 1996). Therefore, in order to examine the anti-inflammatory effect of the lignan compound of the present invention, the effect of the lignan compound of the present invention on the production of IL-6 and TNF-α in the activated microglia. First, only the neocortex was isolated from the brain of 1 day-old rat. Then, a microglia-astroglia mixture was prepared according to a method known in the art (Kim, H. Y. et al., J. Immunol., 171:6072-6079, 2003). […] Then, the amount of IL-6 and TNF-α secreted into the cell cultured medium was measured with the solid-phase ELISA system (RPN2742 for IL-6, RPN2744 for TNF-α, Amersham Bioscience). For this analysis, 50 μl of the supernatant of the cultured medium of microglia and 50 μl of the standard of each material (purely isolated and quantified IL-6 or TNF-α) were added into a 96-well plate coated with an antibody specific to mouse IL-6 and TNF-α. […] Then, 100 μl of a stop solution (Amersham Bioscience) was added into each well to stop the reaction, and the absorbance of the solution in each well was measured with a microreader at 450 nm. […]

Compound: COc1cc(C[C@H](C)[C@H](C)Cc2ccc3c(c2)OCO3)ccc1O [macelignan, (8R,8′S)-7-(3,4-methylenedioxyphenyl)-7′-(4-hydroxy-3-methoxyphenyl)-8,8′-dimethylbutane]
- LD50 [1]: > 2000 mg/kg
- lipid peroxidation induced by hydrogen peroxide at 10 μM ([2]; 10 μM compound, compared with control without hydrogen peroxide): in the similar level as the control
- lipid peroxidation induced by hydrogen peroxide ([2]; rat brain supernatant, 40 mM hydrogen peroxide, compound 0.5, 1, 5 and 10 μM): dose-dependently inhibited
- production of reactive oxygen species in the tissue-cultured hippocampus neuron [3]: in the similar level as the control
- production of IL-6 induced by LPS [4]: dose-dependently inhibited
